Laboratory results reported in PubChem BioAssay (NCI).
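GI50: concentration for 50% inhibition of growth. TGI is the concentration that stops growth completely.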

Assays:
Experiment in all cases: NCI tumour cell line growth inhibition, 384-well format
[1] = test system: UO-31 renal
[2] = test system: MDA-MB-435 melanoma
[3] = test system: NCI-H522 lung
[4] = test system: OVCAR-8 ovarian
[5] = test system: OVCAR-5 ovarian
[6] = test system: SN12C renal
[7] = test system: UACC-257 melanoma
[8] = test system: MALME-3M melanoma
[9] = test system: CAKI-1 renal
[10] = test system: CCRF-CEM leukemia
[11] = test system: RXF 393 renal
[12] = test system: OVCAR-3 ovarian
[13] = test system: HS 578T breast
[14] = test system: M14 melanoma
[15] = test system: NCI-H322M lung
[16] = test system: HCC-2998 colon
[17] = test system: OVCAR-4 ovarian
[18] = test system: KM12 colon
[19] = test system: NCI-H460 NSCLC
[20] = test system: HOP-62 NSCLC
[21] = test system: TK-10 renal
[22] = test system: SR leukemia
[23] = test system: NCI-H226 lung
[24] = test system: SW-620 colon
[25] = test system: SF-268 CNS
[26] = test system: EKVX NSCLC
[27] = test system: LOX IMVI melanoma
[28] = test system: SNB-19 CNS
[29] = test system: SK-MEL-28 melanoma
[30] = test system: RPMI-8226 leukemia
[31] = test system: NCI-H23 lung
[32] = test system: NCI/ADR-RES ovarian
[33] = test system: SK-MEL-5 melanoma
[34] = test system: SF-539 CNS
[35] = test system: SNB-75 CNS
[36] = test system: COLO 205 colon
[37] = test system: UACC-62 melanoma
[38] = test system: MDA-MB-468 breast
[39] = test system: BT-549 breast
[40] = test system: HL-60(TB) leukemia
[41] = test system: MOLT-4 leukemia
[42] = test system: A549 NSCLC

SMILES: CN1CC[C@@H](c2c(O)cc(O)c3c(=O)cc(-c4ccccc4Cl)oc23)[C@@H](O)C1
- GI50 [1]: 36 nM
- TGI [1]: > 100000 nM
- GI50 [2]: 103 nM
- TGI [2]: 255 nM
- GI50 [3]: 109 nM
- TGI [3]: 252 nM
- GI50 [4]: 25 nM
- TGI [4]: 78 nM
- GI50 [5]: 24.2 nM
- TGI [5]: 70.8 nM
- GI50 [6]: 28 nM
- TGI [6]: 91.1 nM
- GI50 [7]: 51.5 nM
- TGI [7]: 173 nM
- GI50 [8]: 42.5 nM
- TGI [8]: 141 nM
- GI50 [9]: 35.1 nM
- TGI [9]: > 100000 nM
- GI50 [10]: 19.4 nM
- TGI [10]: 36.1 nM
- GI50 [11]: 19.1 nM
- TGI [11]: 38.6 nM
- GI50 [12]: 33.1 nM
- TGI [12]: 95 nM
- GI50 [13]: 22.8 nM
- TGI [13]: 47.9 nM
- GI50 [14]: 32.5 nM
- TGI [14]: 116 nM
- GI50 [15]: 33.7 nM
- TGI [15]: 126 nM
- GI50 [16]: 42.4 nM
- TGI [16]: 151 nM
- GI50 [17]: 59.6 nM
- TGI [17]: 282 nM
- GI50 [18]: 27.9 nM
- TGI [18]: 244 nM
- GI50 [19]: 21.5 nM
- TGI [19]: 49.6 nM
- GI50 [20]: 20.2 nM
- TGI [20]: 45.6 nM
- GI50 [21]: 35.7 nM
- TGI [21]: > 100000 nM
- GI50 [22]: 10.2 nM
- TGI [22]: 22.2 nM
- GI50 [23]: 18.7 nM
- TGI [23]: 63.9 nM
- GI50 [24]: 34.8 nM
- TGI [24]: 204 nM
- GI50 [25]: 17.8 nM
- TGI [25]: 38.6 nM
- GI50 [26]: 59.9 nM
- TGI [26]: 299 nM
- GI50 [27]: 20.8 nM
- TGI [27]: 63.2 nM
- GI50 [28]: 50.3 nM
- TGI [28]: > 100000 nM
- GI50 [29]: 28.5 nM
- TGI [29]: 132 nM
- GI50 [30]: 22.7 nM
- TGI [30]: 51.3 nM
- GI50 [31]: 30.1 nM
- TGI [31]: 112 nM
- GI50 [32]: 89.6 nM
- TGI [32]: 319 nM
- GI50 [33]: 29.8 nM
- TGI [33]: 56.8 nM
- GI50 [34]: 24.7 nM
- TGI [34]: 72 nM
- GI50 [35]: 113 nM
- TGI [35]: 244 nM
- GI50 [36]: 31.3 nM
- TGI [36]: 82.4 nM
- GI50 [37]: 17.8 nM
- TGI [37]: 40.7 nM
- GI50 [38]: 28.3 nM
- TGI [38]: 87.4 nM
- GI50 [39]: 25.6 nM
- TGI [39]: 90.8 nM
- GI50 [40]: 13.3 nM
- TGI [40]: 26.3 nM
- GI50 [41]: 23.7 nM
- TGI [41]: 45 nM
- GI50 [42]: 34.9 nM
- TGI [42]: > 100000 nM
